Results published in patent US9296722B2, “Azolyl urea compounds and methods of use thereof” (Ambit Biosciences Corporation, priority 2010, dated 2016).

How the values were obtained:
[1] = target: kinase panel containing either 359 or 386 distinct kinases; test: Competition binding assay, selectivity score (S10) against a panel of kinases; details: compounds at 10 μM; fraction of kinases with percent of control less than 10
Procedure: Competition binding assays used herein were developed, validated and performed as described in Fabian et al., Nature Biotechnology 2005, 23, 329-336. Kinases were produced as fusions to T7 phage (See, Fabian et al. or WO04/015142) or alternatively, the kinases were expressed in HEK-293 cells and subsequently tagged with DNA for PCR detection (See, WO08/005,310). […] The liganded beads were blocked with excess biotin and washed with blocking buffer (SeaBlock (Pierce), 1% BSA, 0.05% Tween 20, 1 mM DTT) to remove unbound ligand and to reduce non-specific binding. […] Test compounds were prepared as 100× stocks in DMSO and diluted into the aqueous environment. Kds were determined using an eleven point threefold serial dilutions. DMSO or control compounds were was added to control assays lacking a test compound. Primary screen assays were performed in polypropylene 384-well plates in a final volume of 20-40 μL, while Kd determinations were performed in polystyrene 96-well plates in a final volume of […]. […] The kinase concentration in the eluates was measured by quantitative PCR.
A selectivity score (S10) is a quantitative measure of selectivity of a compound against a panel of kinases. An S10 was calculated for a compound by dividing the number of kinases found to have a percent of control (DMSO) less than 10 by the total number of distinct kinases tested (excluding mutant variants). Percent of control (POC) is calculated by subtracting the signal of the control compound
(POC=0) from the signal of the test compound and dividing the outcome by the signal of DMSO (POC=100) minus the signal of the control compound. For the compounds disclosed herein, S10 scores were obtained by testing the compounds at 10 μM concentration in a kinase panel containing either 359 or 386 distinct kinases.

M-NFS-60 cells = test: M-NFS-60 cell proliferation assay; assay type: cell-based, mouse; set-up: CSF1R Cell Proliferation (M-NFS-60) IC50 (nM): scale not given here; details: 72 hours incubation, Alamar Blue, M-CSF-dependent cells; for IC50: Mus musculus, read-out: CSF1R Cell Proliferation (M-NFS-60) IC50
Procedure: In certain embodiments, the compounds disclosed herein are tested in an M-NFS-60 cell proliferation assay to determine their cellular potency against CSF-1R. M-NFS-60s are mouse monocytic cells that depend on the binding of the ligand M-CSF to its receptor, CSF-1R, to proliferate Inhibition of CSF-1R kinase activity will cause reduced growth and/or cell death. This assay assesses the potency of compounds as CSF-1R inhibitors by measuring the reduction of Alamar Blue reagent by viable cells. An exemplary assay is described in the Examples section.
The compounds disclosed herein were tested in an M-NFS-60 cell proliferation assay to determine their cellular potency against CSF1R. M-NFS-60s are mouse monocytic cells that depend on the binding of the ligand M-CSF to its receptor, CSF1R, to proliferate Inhibition of CSF1R kinase activity will cause reduced growth and/or cell death. This assay assesses the potency of compounds as CSF1R inhibitors by measuring the reduction of Alamar Blue reagent by viable cells.
On day one of the experiment, M-NFS-60 cells were maintained in RPMI complete medium (Omega Scientific) plus 10% FBS supplemented with 20 ng/mL of M-CSF (R&D Systems). 96-well TC-treated, flat bottom plates were seeded at 10,000 cell/well at a volume of 100 μL per well. The cells were cultured overnight at 37° C. under 5% CO2.
On day two, compounds were added to the cells at 9 different concentrations, with half-log intervals alongside a control reference compound serving as a positive control. Final DMSO concentration was kept at 0.5% for a final volume of 200 μL. The compounds were allowed to incubate with the cells for 72 hours at 37° C. under 5% CO2.
On day five of the experiment, 40 μl of Alamar Blue reagent was added to each well and allowed to incubate for 3 hours. Alamar Blue fluorescence was read using SoftMax Pro software at 560 nm (excitation) and 590 nm (emission). IC50s were generated as an average of duplicates and represents the concentration of test compound that achieves 50% inhibition of cellular proliferation compared to control.

CSF1R (mouse) = target: T1, CSF1R (mouse) (Mus musculus, UniProt P09581); test: Competition binding assay, CSF1R (mouse) Kd
T1 construct: made in house; host or cells: T7 phage display or HEK-293 cells (alternatives, not resolved per kinase)
T1 sequence (P09581 20-977): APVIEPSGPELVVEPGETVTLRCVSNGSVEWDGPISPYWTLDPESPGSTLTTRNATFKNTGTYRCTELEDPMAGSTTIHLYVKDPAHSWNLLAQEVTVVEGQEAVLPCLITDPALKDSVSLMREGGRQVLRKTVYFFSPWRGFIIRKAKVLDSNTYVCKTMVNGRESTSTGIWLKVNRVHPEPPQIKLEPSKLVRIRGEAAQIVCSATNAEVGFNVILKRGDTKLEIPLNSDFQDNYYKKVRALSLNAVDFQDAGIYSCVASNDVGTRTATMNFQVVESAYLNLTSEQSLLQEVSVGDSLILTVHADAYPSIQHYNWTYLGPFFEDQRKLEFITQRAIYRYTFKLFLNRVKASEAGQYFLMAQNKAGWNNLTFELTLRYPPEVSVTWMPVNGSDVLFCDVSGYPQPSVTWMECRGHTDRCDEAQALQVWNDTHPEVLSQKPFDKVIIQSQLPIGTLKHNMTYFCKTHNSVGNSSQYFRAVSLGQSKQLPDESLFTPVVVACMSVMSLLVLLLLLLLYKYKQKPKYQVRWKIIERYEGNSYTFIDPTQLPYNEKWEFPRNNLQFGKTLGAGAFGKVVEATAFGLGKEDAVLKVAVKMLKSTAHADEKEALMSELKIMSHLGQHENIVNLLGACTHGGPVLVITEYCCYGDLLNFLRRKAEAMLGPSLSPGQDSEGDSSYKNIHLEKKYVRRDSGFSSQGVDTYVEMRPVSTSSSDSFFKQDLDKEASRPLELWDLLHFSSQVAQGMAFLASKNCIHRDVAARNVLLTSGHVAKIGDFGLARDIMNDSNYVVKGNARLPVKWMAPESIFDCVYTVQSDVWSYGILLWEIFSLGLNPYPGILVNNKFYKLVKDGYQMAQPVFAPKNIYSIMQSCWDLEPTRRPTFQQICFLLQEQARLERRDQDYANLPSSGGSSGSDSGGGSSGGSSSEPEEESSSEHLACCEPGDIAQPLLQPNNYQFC
Procedure: (§1) The liganded beads were blocked with excess biotin and washed with blocking buffer (SeaBlock (Pierce), 1% BSA, 0.05% Tween 20, 1 mM DTT) to remove unbound ligand and to reduce non-specific binding. […] Test compounds were prepared as 100× stocks in DMSO and diluted into the aqueous environment. Kds were determined using an eleven point threefold serial dilutions. DMSO or control compounds were was added to control assays lacking a test compound. […] The kinase concentration in the eluates was measured by quantitative PCR.

CSF1R (human) = target: T2, CSF1R (human) (Homo sapiens, UniProt P07333); test: Competition binding assay, CSF1R (human) Kd
T2 construct: made in house; host or cells: T7 phage display or HEK-293 cells (alternatives, not resolved per kinase)
Procedure: as §1

T2 sequence (P07333 20-972): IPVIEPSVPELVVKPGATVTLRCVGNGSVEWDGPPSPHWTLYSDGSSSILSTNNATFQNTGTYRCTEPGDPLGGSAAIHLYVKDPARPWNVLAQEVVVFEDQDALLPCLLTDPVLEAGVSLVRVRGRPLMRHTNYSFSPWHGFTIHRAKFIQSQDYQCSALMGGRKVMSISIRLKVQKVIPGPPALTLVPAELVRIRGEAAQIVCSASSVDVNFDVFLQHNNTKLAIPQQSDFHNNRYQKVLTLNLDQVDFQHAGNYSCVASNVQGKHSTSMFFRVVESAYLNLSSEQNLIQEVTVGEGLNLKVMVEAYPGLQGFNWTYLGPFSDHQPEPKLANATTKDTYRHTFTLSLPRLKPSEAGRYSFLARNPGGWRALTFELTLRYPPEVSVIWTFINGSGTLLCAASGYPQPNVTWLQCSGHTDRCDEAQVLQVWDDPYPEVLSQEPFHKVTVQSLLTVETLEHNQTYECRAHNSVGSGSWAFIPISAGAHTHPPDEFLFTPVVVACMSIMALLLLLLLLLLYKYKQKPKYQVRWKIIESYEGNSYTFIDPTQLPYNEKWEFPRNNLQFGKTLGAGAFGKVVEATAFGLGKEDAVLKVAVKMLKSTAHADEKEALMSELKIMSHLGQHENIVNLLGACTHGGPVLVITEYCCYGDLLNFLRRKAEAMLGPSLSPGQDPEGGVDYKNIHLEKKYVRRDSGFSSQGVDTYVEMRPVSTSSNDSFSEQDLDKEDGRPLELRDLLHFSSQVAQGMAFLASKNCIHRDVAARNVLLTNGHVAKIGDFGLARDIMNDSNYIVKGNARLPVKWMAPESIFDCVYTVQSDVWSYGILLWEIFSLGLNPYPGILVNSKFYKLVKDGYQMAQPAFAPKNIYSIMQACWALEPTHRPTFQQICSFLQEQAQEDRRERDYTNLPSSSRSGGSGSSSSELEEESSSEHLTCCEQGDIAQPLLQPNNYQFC

SMILES | Kinase Specificity (S10) [1] | IC50 (M-NFS-60 cells) [nM] | Kd (CSF1R (mouse)) [nM] | Kd (CSF1R (human)) [nM] | CSF1R Cell Proliferation (M-NFS-60) IC50 (nM) (M-NFS-60 cells)
CN1CCN(c2ccnc(C(=O)Nc3ccc(NC(=O)Nc4cc(C(C)(C)C)on4)cc3)c2)CC1 | B (0.03 < B ≦ 0.05) | 100 to 250 | 3 to 10 | 3 to 10 | 
CN1CCC(Oc2ccnc(C(=O)Nc3ccc(NC(=O)Nc4cc(C(C)(C)C)on4)cc3)c2)CC1 | B (0.03 < B ≦ 0.05) | 250 to 1000 | 3 to 10 | 3 to 10 | 
CN1CCN(c2cccc(C(=O)Nc3ccc(NC(=O)Nc4cc(C(C)(C)C)on4)cc3)n2)CC1 | B (0.03 < B ≦ 0.05) | > 1000 | 3 to 10 | 3 to 10 | 
CCN(CC)Cc1ccnc(C(=O)Nc2ccc(NC(=O)Nc3cc(C(C)(C)C)on3)cc2)c1 | A (A ≦ 0.03) | 250 to 1000 | 3 to 10 | 3 to 10 | 
CN1CCN(c2ccc(C(=O)Nc3ccc(NC(=O)Nc4cc(C(C)(C)C)on4)cc3)nc2)CC1 | C (C > 0.05) | ≤ 100 | < 3 | < 3 | 
CC(C)(C)OC(=O)N1CCC(Oc2ccc(C(=O)N[C@H]3CC[C@H](NC(=O)Nc4cc(C(C)(C)C)on4)CC3)nc2)CC1 | A (A ≦ 0.03) | 250 to 1000 | 3 to 10 | > 10 | 
CC(C)(C)c1cc(NC(=O)N[C@H]2CC[C@H](NC(=O)c3ccc(OC4CCNCC4)cn3)CC2)no1 | A (A ≦ 0.03) | > 1000 | 3 to 10 | 3 to 10 | 
CCN1CCC(Oc2ccc(C(=O)N[C@H]3CC[C@H](NC(=O)Nc4cc(C(C)(C)C)on4)CC3)nc2)CC1 | A (A ≦ 0.03) | 250 to 1000 | 3 to 10 | 3 to 10 | 
CC(C)(C)c1cc(NC(=O)Nc2ccc(NC(=O)c3ccc(CC4CCNCC4)cn3)cc2)no1 | A (A ≦ 0.03) | 100 to 250 | < 3 | < 3 | 
CN1CCC(c2ccc(C(=O)Nc3ccc(NC(=O)Nc4cc(C(C)(C)C)on4)cc3)nc2)CC1 | B (0.03 < B ≦ 0.05) | ≤ 100 | 3 to 10 | 3 to 10 | 
CC(C)(C)c1cc(NC(=O)Nc2ccc(NC(=O)c3cccc(OC4CCNCC4)n3)cc2)no1 | B (0.03 < B ≦ 0.05) | > 1000 | > 10 | > 10 | 
CCN1CCC(Oc2ccc(C(=O)Nc3ccc(NC(=O)Nc4cc(C(C)(CF)CF)on4)cc3)nc2)CC1 | B (0.03 < B ≦ 0.05) | ≤ 100 | < 3 | < 3 | 
CN1CCC(Oc2ccc(C(=O)Nc3ccc(NC(=O)Nc4cc(C(C)(CF)CF)on4)cc3)nc2)CC1 | B (0.03 < B ≦ 0.05) | ≤ 100 | < 3 | < 3 | 
CC(CF)(CF)c1cc(NC(=O)Nc2ccc(NC(=O)c3ccc(OC4CCN(CC(F)(F)F)CC4)cn3)cc2)no1 | A (A ≦ 0.03) | 100 to 250 | < 3 | < 3 | 
CC(C)N1CCC(Oc2ccc(C(=O)Nc3ccc(NC(=O)Nc4cc(C(C)(CF)CF)on4)cc3)nc2)CC1 | B (0.03 < B ≦ 0.05) | ≤ 100 | < 3 | < 3 | 
CCN(CC)Cc1cccc(C(=O)Nc2ccc(NC(=O)Nc3cc(C(C)(C)C)on3)cc2)n1 | A (A ≦ 0.03) | > 1000 | > 10 | > 10 | 
CC(C)(C)c1cc(NC(=O)Nc2ccc(NC(=O)c3cccc(CN)n3)cc2)no1.Cl | A (A ≦ 0.03) | 250 to 1000 | > 10 | > 10 | 
CC(C)(C)c1cc(NC(=O)Nc2ccc(NC(=O)c3cc(OCCN4CCOCC4)ccn3)cc2)no1 | A (A ≦ 0.03) |  | < 3 | 3 to 10 | B/C
CC(C)(C)c1cc(NC(=O)Nc2ccc(NC(=O)c3ccc(CN4CCOCC4)cn3)cc2)no1 | A (A ≦ 0.03) | 100 to 250 | 3 to 10 | 3 to 10 | 
CC(C)(C)c1cc(NC(=O)Nc2ccc(NC(=O)c3cccc(OCCN4CCOCC4)n3)cc2)no1 | A (A ≦ 0.03) | > 1000 | > 10 | > 10 | 
CC(C)(C)c1cc(NC(=O)Nc2ccc(NC(=O)c3cccc(CN4CCOCC4)n3)cc2)no1 | B (0.03 < B ≦ 0.05) | > 1000 | > 10 | > 10 | 
